# Test results reported in patent US7491819B1 (priority 2004, dated 2009).
# Like-named read-outs stand apart in the source and are kept apart here.
# What was measured:
# HIV-integrase = target: T1, HIV-integrase (Human immunodeficiency virus type 1 group M subtype B, UniProt P12497); test: HIV-Integrase Inhibition Activity (SPA bead strand-transfer assay); format: biochemical
# T1 construct: Recombinant integrase (0.26 ng) was incubated with the beads
# Method in brief: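 Strand-transfer read-out: CPM from P33-labelled target DNA (0.1 fmol) joined to bead-bound biotin substrate DNA (5 pmole), with EDTA stop at 10 mM final. Integrase (0.26 ng) prebound to streptavidin SPA beads 90 min, 37° C, and washed before adding inhibitor.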
# NL-Rluc virus = test: Inhibition of HIV replication (recombinant NL-Rluc virus, luciferase); format: cell-based
# [1] = Table 2a, read-out: HIV-Integrase Inhibition Activity
# [2] = Human immunodeficiency virus 1, read-out: Inhibition of HIV replication
# [3] = Table 1, read-out: Activity (HIV-integrase inhibition, IC50 class)
SMILES,IC50 (HIV-integrase; [1]) [nM],melting point,EC50 (NL-Rluc virus; [2]) [nM],IC50 (HIV-integrase; [3]) [nM],IC50 (HIV-integrase) [nM],"EC50 (NL-Rluc virus; Human immunodeficiency virus 1, Table 2, serum condition not stated (10% FBS, 15 mg/ml human serum albumin/10% FBS or 40% human serum/5% FBS), at least 2 experiments, read-out: Activity (inhibition of HIV replication, EC50 class)) [nM]"
"Cn1ccc(-c2cc(F)ccc2CNC(=O)c2nc3n(c(=O)c2O)CCOC3(C)C)n1 [Example 286, Pyrimido[2,1-c][1,4]oxazine-2-carboxamide, N-[[4-fluoro-2-(1-methyl-1H-pyrazol-3-yl)phenyl]methyl]-4,6,7,9-tetrahydro-3-hydroxy-9,9-dimethyl-4-oxo-]",2 to 100,220 °C,3 to 100,,,
"COc1ncccc1-c1cc(F)ccc1CNC(=O)c1nc2n(c(=O)c1O)CCOC2(C)C [Example 76, Pyrimido[2,1-c][1,4]oxazine-2-carboxamide, N-[[4-fluoro-2-(2-methoxy-3-pyridinyl)phenyl]methyl]-4,6,7,9-tetrahydro-3-hydroxy-9,9-dimethyl-4-oxo-]",,227 °C,,2 to 100,,
"Cc1ncn(-c2ccccc2CNC(=O)c2nc3n(c(=O)c2O)CCOC3(C)C)n1 [Example 288, Pyrimido[2,1-c][1,4]oxazine-2-carboxamide, 4,6,7,9-tetrahydro-3-hydroxy-9,9-dimethyl-N-[[2-(3-methyl-1H-1,2,4-triazol-1-yl)phenyl]methyl]-4-oxo-e]",2 to 100,234 °C (dec.),3 to 100,,,
"O=C(NCc1ccc(F)cc1)c1nc2n(c(=O)c1O)CCOC2 [Example 1, Pyrimido[2,1-c][1,4]oxazine-2-carboxamide, N-[(4-fluorophenyl)methyl]-4,6,7,9-tetrahydro-3-hydroxy-4-oxo-]",,211 °C,,2 to 100,,
"Cc1cc(CNC(=O)c2nc3n(c(=O)c2O)CCOC3C)ccc1F (stereo not shown) [Example 5, Pyrimido[2,1-c][1,4]oxazine-2-carboxamide, N-[(4-fluoro-3-methylphenyl)methyl]-4,6,7,9-tetrahydro-3-hydroxy-9-methyl-4-oxo-]",,134 °C,,2 to 100,,
"Cn1nccc1-c1cc(F)ccc1CNC(=O)c1nc2n(c(=O)c1O)CCOC2(C)C [Example 287, Pyrimido[2,1-c][1,4]oxazine-2-carboxamide, N-[[4-fluoro-2-(1-methyl-1H-pyrazol-5-yl)phenyl]methyl]-4,6,7,9-tetrahydro-3-hydroxy-9,9-dimethyl-4-oxo-]",2 to 100,221 °C,3 to 100,,,
"CC1OCCn2c1nc(C(=O)NCc1ccc(F)cc1)c(O)c2=O (stereo not shown) [Example 4, Pyrimido[2,1-c][1,4]oxazine-2-carboxamide, N-[(4-fluorophenyl)methyl]-4,6,7,9-tetrahydro-3-hydroxy-9-methyl-4-oxo-]",,165 to 167 °C,,2 to 100,,
"CCC1OCCn2c1nc(C(=O)NCc1ccc(F)cc1-n1cnc(C)n1)c(O)c2=O (stereo not shown) [Example 284, Pyrimido[2,1-c][1,4]oxazine-2-carboxamide, 9-ethyl-N-[[4-fluoro-2-(3-methyl-1H-1,2,4-triazol-1-yl)phenyl]methyl]-4,6,7,9-tetrahydro-3-hydroxy-4-oxo-e]",2 to 100,213 °C,3 to 100,,,
"CCOP(=O)(OCC)c1cc(F)ccc1CNC(=O)c1nc2n(c(=O)c1O)CCOC2(C)C [Example 213, Phosphonic acid, [5-fluoro-2-[[[(4,6,7,9-tetrahydro-3-hydroxy-9,9-dimethyl-4-oxopyrimido[2,1-c][1,4]oxazin-2-yl)carbonyl]amino]methyl]phenyl]-, diethyl ester]",,124 °C,,2 to 100,,
"CCC1(C)OCCn2c1nc(C(=O)NCc1ccc(F)cc1S(C)(=O)=O)c(O)c2=O (stereo not shown) [Example 314, Pyrimido[2,1-c][1,4]oxazine-2-carboxamide, 9-ethyl-N-[[4-fluoro-2-(methylsulfonyl)phenyl]methyl]-4,6,7,9-tetrahydro-3-hydroxy-9-methyl-4-oxo-]",2 to 100,,3 to 100,,,
"Cc1ncn(-c2cc(F)ccc2CNC(=O)c2nc3n(c(=O)c2O)CCCOC3(C)C)n1 [Example 317, 6H-Pyrimido[2,1-c][1,4]oxazepine-2-carboxamide, N-[[4-fluoro-2-(3-methyl-1H-1,2,4-triazol-1-yl)phenyl]methyl]-4,7,8,10-tetrahydro-3-hydroxy-10,10-dimethyl-4-oxo-]",2 to 100,,3 to 100,,,
"CC(=O)OCCS(=O)(=O)c1cc(F)ccc1CNC(=O)c1nc2n(c(=O)c1O)CCOC2(C)C [Example 310, Pyrimido[2,1-c][1,4]oxazine-2-carboxamide, N-[[2-[[2-(acetyloxy)ethyl]sulfonyl]-4-fluorophenyl]methyl]-4,6,7,9-tetrahydro-3-hydroxy-9,9-dimethyl-4-oxo-]",2 to 100,,3 to 100,,,
"CC1OCCn2c1nc(C(=O)NCc1ccc(F)c(Cl)c1)c(O)c2=O (stereo not shown) [Example 7, Pyrimido[2,1-c][1,4]oxazine-2-carboxamide, N-[(3-chloro-4-fluorophenyl)methyl]-4,6,7,9-tetrahydro-3-hydroxy-9-methyl-4-oxo-]",,172 °C,,2 to 100,,
"CC1OCCn2c1nc(C(=O)NCc1ccc(Cl)c(Cl)c1)c(O)c2=O (stereo not shown) [Example 6, Pyrimido[2,1-c][1,4]oxazine-2-carboxamide, N-[(3,4-dichlorophenyl)methyl]-4,6,7,9-tetrahydro-3-hydroxy-9-methyl-4-oxo-]",,192 °C,,2 to 100,,
"CC1(C)OCCn2c1nc(C(=O)NCc1cccc(C3(C(F)(F)F)NN3)c1)c(O)c2=O [Example 104, Pyrimido[2,1-c][1,4]oxazine-2-carboxamide, 4,6,7,9-tetrahydro-3-hydroxy-9,9-dimethyl-4-oxo-N-[[3-[3-(trifluoromethyl)-3-diaziridinyl]-phenyl]-methyl]-]",,,,,100 to 1000,100 to 1000
"CC1(C)OCCCn2c1nc(C(=O)NCc1ccc(F)cc1-n1ccnn1)c(O)c2=O [Example 300, 6H-Pyrimido[2,1-c][1,4]oxazepine-2-carboxamide, N-[[4-fluoro-2-(1H-1,2,3-triazol-1-yl)phenyl]methyl]-4,7,8,10-tetrahydro-3-hydroxy-10,10-dimethyl-4-oxo-]",2 to 100,,3 to 100,,,
"Cc1cc(CNC(=O)c2nc3n(c(=O)c2O)CCOC3)ccc1F [Example 2, Pyrimido[2,1-c[]1,4]oxazine-2-carboxamide, N-[(4-fluoro-3-methylphenyl)methyl]-4,6,7,9-tetrahydro-3-hydroxy-4-oxo-]",,206 to 208 °C,,2 to 100,,
"CC1(C)OCCn2c1nc(C(=O)NCc1ccc(F)cc1P1(=O)OCCO1)c(O)c2=O [Example 291, Pyrimido[2,1-c][1,4]oxazine-2-carboxamide, N-[[4-fluoro-2-(2-oxido-1,3,2-dioxaphospholan-2-yl)phenyl]methyl]-4,6,7,9-tetrahydro-3-hydroxy-9,9-dimethyl-4-oxo-]",2 to 100,,> 1000,,,
"Cc1nc(C)n(-c2cc(F)ccc2CNC(=O)c2nc3n(c(=O)c2O)CCCOC3(C)C)n1 [Example 319, 6H-Pyrimido[2,1-c][1,4]oxazepine-2-carboxamide, N-[[2-(3,5-dimethyl-1H-1,2,4-triazol-1-yl)-4-fluorophenyl]methyl]-4,7,8,10-tetrahydro-3-hydroxy-10,10-dimethyl-4-oxo-]",2 to 100,,3 to 100,,,
"CC1(C)OCCn2c1nc(C(=O)NCc1ccc(F)cc1-n1cccn1)c(O)c2=O [Example 306, Pyrimido[2,1-c][1,4]oxazine-2-carboxamide, N-[[4-fluoro-2-(1H-pyrazol-1-yl)phenyl]methyl]-4,6,7,9-tetrahydro-3-hydroxy-9,9-dimethyl-4-oxo-]",2 to 100,,3 to 100,,,
"CCS(=O)(=O)Nc1cc(F)ccc1CNC(=O)c1nc2n(c(=O)c1O)CCOC2(C)C [Example 305, Pyrimido[2,1-c][1,4]oxazine-2-carboxamide, N-[[2-[(ethylsulfonyl)amino]-4-fluorophenyl]methyl]-4,6,7,9-tetrahydro-3-hydroxy-9,9-dimethyl-4-oxo-]",2 to 100,,3 to 100,,,
